Experiments:
Assay type in all cases: in vivo
IGF-1 A precursor = assay: 2-DE proteome analysis of rat hippocampus after antidepressant treatment: IGF-1 A precursor; settings: rat hippocampus cytosolic extract, 10 mg/kg i.p. daily 14 days, vs control; gel spot 87
Procedure: (§1) Animal dosing. Adult male Sprague Dawley rats weighing 230-320 g were housed with ad libitum access to food and water. After 1 week of habituation, rats were administered either an antidepressant or vehicle alone. The following drugs were administered intraperitoneally (i.p.): fluoxetine (10 mg/kg daily), venlafaxine (10 mg/kg daily) or vehicle alone (1 ml/kg normal saline daily) for 14 days (n=3 rats per group).
(§2) Sample preparation and cytosolic protein extraction. The animals were euthanized and hippocampi were rapidly dissected from the whole brain. Samples from each treatment group were pooled and stored at −85° C. Cytosolic extracts were prepared using the universal extraction kit from Sigma (prot-two) as follows: soluble cytoplasmic extraction reagent (S2688) was added to the hippocampal tissue (10 ml/250 mg wet weight). […]
(§3) Two-dimensional gel electrophoresis. […] Molecular masses were determined by running standard protein markers (Genomic Solutions Inc.), covering the range 10-200 kDa as well as internal verification via landmark proteins within the gel. […]
(§4) Protein fixation, silver staining and 2-D gel comparisons. […] Protein spots were outlined (first automatically and then manually) and quantified using the HT analyzer v2.2 software (Genomic Solutions Inc.). The software calculated the relative spot volume of the proteins compared with the total amount of protein in the gel. […]

[1] = tested on: PCTAIRE-3 (Serine/Threonine-Protein Kinase); assay: 2-DE proteome analysis of rat hippocampus: PCTAIRE-3; settings: rat hippocampus cytosolic extract, 10 mg/kg i.p. daily 14 days, vs control; gel spot 6
Procedure: as §1, §2, §3, §4

[2] = tested on: Hippocampal Cholinergic Neurostimulating peptide (PEBP; HCNP; Raf kinase inhibitor protein); assay: 2-DE proteome analysis of rat hippocampus: HCNP; settings: rat hippocampus cytosolic extract, 10 mg/kg i.p. daily 14 days, vs control; gel spot 60
Procedure: as §1, §2, §3, §4

[3] = tested on: Serine Protease Inhibitor 2.1 (SPI-2.1); assay: 2-DE proteome analysis of rat hippocampus: SPI-2.1; settings: rat hippocampus cytosolic extract, 10 mg/kg i.p. daily 14 days, vs control; gel spot 62
Procedure: as §1, §2, §3, §4

[4] = tested on: Pyruvate Dehydrogenase E1 component beta subunit, mitochondrial (precursor); assay: 2-DE proteome analysis of rat hippocampus: Pyruvate Dehydrogenase E1 beta; settings: rat hippocampus cytosolic extract, 10 mg/kg i.p. daily 14 days, vs control; gel spot 26
Procedure: as §1, §2, §3, §4

[5] = tested on: L-Lactate Dehydrogenase B Chain; assay: 2-DE proteome analysis of rat hippocampus: L-Lactate Dehydrogenase B Chain; settings: rat hippocampus cytosolic extract, 10 mg/kg i.p. daily 14 days, vs control; gel spot 23
Procedure: as §1, §2, §3, §4

[6] = tested on: Ras-related protein RAB-4A; assay: 2-DE proteome analysis of rat hippocampus: RAB-4A; settings: rat hippocampus cytosolic extract, 10 mg/kg i.p. daily 14 days, vs control; gel spot 90 (mix)
Procedure: as §1, §2, §3, §4

[7] = tested on: Ras-related protein RAB-1B; assay: 2-DE proteome analysis of rat hippocampus: RAB-1B; settings: rat hippocampus cytosolic extract, 10 mg/kg i.p. daily 14 days, vs control; gel spot 90 (mix)
Procedure: as §1, §2, §3, §4

[8] = tested on: Adenine Phosphoribosyltransferase (APRT); assay: 2-DE proteome analysis of rat hippocampus: APRT; settings: rat hippocampus cytosolic extract, 10 mg/kg i.p. daily 14 days, vs control; gel spot 57
Procedure: as §1, §2, §3, §4

[9] = tested on: Transcription Initiation factor IIA Gamma Chain; assay: 2-DE proteome analysis of rat hippocampus: TFIIA Gamma Chain; settings: rat hippocampus cytosolic extract, 10 mg/kg i.p. daily 14 days, vs control; gel spot 88
Procedure: as §1, §2, §3, §4

[10] = tested on: 40 S ribosomal protein S 19; assay: 2-DE proteome analysis of rat hippocampus: ribosomal protein S 19; settings: rat hippocampus cytosolic extract, 10 mg/kg i.p. daily 14 days, vs control; gel spot 72
Procedure: as §1, §2, §3, §4

[11] = tested on: 60S Ribosomal Protein L18A; assay: 2-DE proteome analysis of rat hippocampus: Ribosomal Protein L18A; settings: rat hippocampus cytosolic extract, 10 mg/kg i.p. daily 14 days, vs control; gel spot 58
Procedure: as §1, §2, §3, §4

[12] = tested on: 60S Ribosomal Protein L35A; assay: 2-DE proteome analysis of rat hippocampus: Ribosomal Protein L35A; settings: rat hippocampus cytosolic extract, 10 mg/kg i.p. daily 14 days, vs control; gel spot 92
Procedure: as §1, §2, §3, §4

[13] = tested on: Cytochrome C oxidase polypeptide VB, mitochondrial precursor (COX5B); assay: 2-DE proteome analysis of rat hippocampus: COX5B; settings: rat hippocampus cytosolic extract, 10 mg/kg i.p. daily 14 days, vs control; gel spot 86
Procedure: as §1, §2, §3, §4

Row | Compound | Fold change, IGF-1 A precursor (IGF-1 A precursor) [Fold change] | Fold change, PCTAIRE-3 [1] [Fold change] | Fold change, Hippocampal Cholinergic Neurostimulating peptide (PEBP; HCNP) [2] [Fold change] | Fold change, Serine Protease Inhibitor 2.1 (SPI-2.1) [3] [Fold change] | Fold change, Pyruvate Dehydrogenase E1 component beta subunit [4] [Fold change] | Fold change, L-Lactate Dehydrogenase B Chain [5] [Fold change] | Fold change, Ras-related protein RAB-4A [6] [Fold change] | Fold change, Ras-related protein RAB-1B [7] [Fold change] | Fold change, Adenine Phosphoribosyltransferase (APRT) [8] [Fold change] | Fold change, Transcription Initiation factor IIA Gamma Chain [9] [Fold change] | Fold change, 40 S ribosomal protein S 19 [10] [Fold change] | Fold change, 60S Ribosomal Protein L18A [11] [Fold change] | Fold change, 60S Ribosomal Protein L35A [12] [Fold change] | Fold change, Cytochrome C oxidase polypeptide VB (COX5B) [13] [Fold change]
1 | CNCCC(Oc1ccc(C(F)(F)F)cc1)c1ccccc1 (stereo not shown) [Fluoxetine, fluoxetine] | 2.5 | 1.5 | 1.9 | 2.9 | 3.2 | 2.5 | 1.5 | 1.5 | 5.8 | 2.5 | 2 | 1.8 | 2.2 | 3.2
2 | COc1ccc(C(CN(C)C)C2(O)CCCCC2)cc1 (stereo not shown) [Venlafaxine, venlafaxine] | 2.9 | 1.5 | 2 | 1.9 | 2.6 | 2.5 | 1.5 | 1.5 | 3 | 2.4 | 1.8 | 2.9 | 2.5 | 4
